Measurements reported in patent US20240368134A1, “AROMATIC COMPOUND, PHARMACEUTICAL COMPOSITION, AND APPLICATION THEREOF” (SHANGHAI KYGENT PHARMACEUTICAL CO., LTD, priority 2021, published 2024).
pIC50: −log10 of the molar value. Where two headings read alike, the source gives them in different places.

Key:
[1] = test system: NCI-H2052 cells; test: Tumor cell proliferation inhibition experiment (Cell Titer Glo), NCI-H2052; format: cell-based; conditions: NCI-H2052 lung cancer cells, three days incubation
Procedure: (§1) Cell Titer Glo luminescent cell viability assay kit was used to quantify the ATP content in cells, so as to quantify the number of viable cells. […] On the second day, the compound was added to the 96-well plate after a three-fold serial dilution to eight concentrations, and incubated at 37° C. for three days in the 5% carbon dioxide incubator. The culture medium was treated with the addition of Cell Titer Glo luminescent cell viability assay kit (Promega G7570) reagent, incubated for 10 minutes, and then placed in Envision (Pelkin Elmer) to read the luminescence signal. DMSO was used instead of the compound as a control to calculate the inhibition rate (inhibition rate %=(1−compound signal/DMSO signal)*100), and then standard four parameter curve fitting was used to calculate the inhibitory activity IC50.

[2] = test system: MSTO-211H cells; test: Tumor cell proliferation inhibition experiment (Cell Titer Glo), MSTO-211H; format: cell-based; conditions: MSTO-211H lung cancer cells, three days incubation
Procedure: as §1

[3] = Pharmacokinetic evaluation experiment in mice (IV and PO); format: in vivo; conditions: male ICR mice; for Vd: read-out: Vss
Procedure: 120 healthy adult male ICR mice were selected and divided into 20 groups according to the principle of similar body weight, with 6 mice in each group of IV (10 groups) and 6 mice in each group of PO (10 groups). An appropriate amount of sample was weighed, sequentially added with an appropriate amount of DMA, Solutol, and Saline according to the volume ratio of 10:10:80, and stirred and sonicated to achieve a clarification of 1 mg/mL. After overnight fasting, mice in the IV group were intravenously administered with a volume of 5 mL/kg and a dose of 5 mg/kg, respectively; and mice in the PO group were intragastrically administered with a volume of 30 mL/kg and a dose of 30 mg/kg, respectively. Interleaved sampling was performed on every 6 mice after administration of the test compound. In the IV group, approximately 30 μL of blood was collected at 0.0833, 0.25, 0.5, 1, 2, 4, 6, 8, and 24 hours, and placed in a commercial anticoagulant tube pre-filled with EDTA-K2. In the PO group, approximately 30 μL of blood was collected at 0.25, 0.5, 1, 2, 4, 6, 8, and 24 hours, and placed in the commercial anticoagulant tube pre-filled with EDTA-K2. The tubes were centrifuged for 15 minutes to separate the plasma, and the plasma was stored at −80° C. Animals were allowed to eat 2 hours after administration. The content of the test compound in the plasma of mice after intravenous and intragastric administration was determined by LC/MS/MS method. The linear range of the method was 1.00 to 1000 ng/mL: plasma samples were analyzed after protein precipitation.

[4] = mouse, plasma, PO 30 mg/kg vs IV 5 mg/kg
[5] = mouse, IV 5 mg/kg, plasma, read-out: AUC
[6] = mouse, PO 30 mg/kg, plasma, read-out: AUC
[7] = mouse, PO 30 mg/kg, plasma, read-out: Cmax
[8] = mouse, PO 30 mg/kg, plasma, read-out: Tmax

SMILES	pIC50 ([1]; Homo sapiens, 72 h)	pIC50 ([2]; Homo sapiens, 72 h)	bioavailability [3, 4] [%]	clearance ([3]; mouse, IV 5 mg/kg, plasma) [mL/min/kg]	half-life ([3]; mouse, IV 5 mg/kg, plasma) [h]	AUC [3, 5] [ng·h/mL]	Vd ([3]; mouse, IV 5 mg/kg, plasma) [L/kg]	AUC [3, 6] [ng·h/mL]	Cmax [3, 7] [ng/mL]	Tmax [3, 8] [h]	pIC50 [1]	pIC50 [2]	AUC ([3]; IV 5 mg/kg, plasma) [ng·h/mL]	CL ([3]; IV 5 mg/kg, plasma) [mL/min/kg]	T1/2 ([3]; IV 5 mg/kg, plasma) [h]	Vss ([3]; IV 5 mg/kg, plasma) [L/kg]	F % ([3]; PO 30 mg/kg vs IV 5 mg/kg) [%]	AUC ([3]; PO 30 mg/kg, plasma) [ng·h/mL]	Cmax ([3]; PO 30 mg/kg, plasma) [ng/mL]	Tmax ([3]; PO 30 mg/kg, plasma) [h]
NC(=O)c1cc2c(c(F)c1-c1c(Cl)c(F)cc3c1C[C@](c1ccccc1)([C@@H]1CCCN1)O3)CCC2O (stereo partly shown) [Compound 53a]	6.80	6.82	14.4	44.2	4.18	1880	6.94	1620	301	0.5	–	–	–	–	–	–	–	–	–	–
CNC(=O)c1cc2c(c(F)c1-c1c(Cl)c(F)cc3c1C[C@@](CN[C@H]1CC[C@H](O)CC1)(c1ccccc1)O3)C1CC1O2 (stereo partly shown) [Compound 13a]	6.68	6.70	108	41.4	2.23	2010	8.5	13100	2050	2	–	–	–	–	–	–	–	–	–	–
CNC(=O)c1cc2c(c(F)c1-c1c(Cl)c(F)cc3c1C[C@](c1ccccc1)([C@@H]1CCCN1)O3)CCC2O (stereo partly shown) [Compound 41a]	6.38	6.72	61.8	36.5	2.19	2280	5.32	8460	1270	2	–	–	–	–	–	–	–	–	–	–
CNC(=O)c1cc2c(c(F)c1-c1c(Cl)c(F)cc3c1C[C@](c1ccccc1)([C@@H]1CCCN1)O3)CCC2 [Compound 31a]	6.60	6.70	44.6	17.9	3.52	2790	4.44	7470	928	1	–	–	–	–	–	–	–	–	–	–
CNC(=O)c1cc2c(c(F)c1-c1c(Cl)c(F)cc3c1C[C@](c1ccccc1)([C@@H]1CCCN1)O3)C1CC1O2 (stereo partly shown) [Compound 2a]	6.03	6.38	95.4	86.3	3.82	750	28	4300	474	4	–	–	–	–	–	–	–	–	–	–
CNC(=O)c1cc2c(c(F)c1-c1c(Cl)c(F)cc3c1C[C@@](CN[C@H]1CC[C@](C)(O)CC1)(c1ccccc1)O3)C1CC1O2 (stereo partly shown) [Compound 14a]	–	–	–	–	–	–	–	–	–	–	6.44	6.49	3462	24.1	2.35	4.34	102.1	21209	2697	2.00
CNC(=O)c1cc2c(c(F)c1-c1c(Cl)c(F)cc3c1C[C@](c1ccccc1)([C@@H]1CCCN1)O3)OC1CC21 (stereo partly shown) [Compound 17a]	7.05	7.10	52.2	75.8	1.79	1100	11.7	3450	424	1.33	–	–	–	–	–	–	–	–	–	–
